The record followed here is patent US20120059020A1, “PROPHYLACTIC OR THERAPEUTIC AGENT FOR PULMONARY FIBROSIS” (SHIZUOKA COFFEIN CO., LTD, priority 2009, published 2012).

For data set [1], the system named is mouse models with bleomycin-induced pulmonary fibrosis. Kind of data set: In vivo effect on pulmonary fibrosis induced by bleomycin. On the set-up: species or system C57BL/6 mice. The source says: The present inventors conducted a test using mouse models with pulmonary fibrosis induced by transtracheally administering bleomycin, for the purpose of studying the antifibrotic action of the propanedioic acid derivative of the present invention in vivo. This experimental model of pulmonary fibrosis is clinically similar to idiopathic pulmonary fibrosis in pathological observations such as increased inflammatory cells and the increased amount of hydroxyproline in an extracellular matrix-constituting collagen ingredient used as an index for fibrosis, and is widely used.
C57BL/6 mice (female, 12 week old, body weight: 20 to 23 g) were anesthetized by the intraperitoneal administration of pentobarbital. The trachea was incised, and bleomycin (NIPPON KAYAKU CO., LTD.) (1.5 mg/kg) dissolved in saline was transtracheally administered thereto. […]
20 days after bleomycin administration, a bronchoalveolar lavage fluid (BALF) was collected from each mouse, and a PAI-1 concentration (ng/mL) in the fluid was measured using an ELISA kit (Mouse PAI-1 ELISA kit, Innovative research Inc.). Subsequently, the amount of hydroxyproline was measured for pulmonary fibrosis evaluation. The amount of hydroxyproline in the lung tissue was measured as the amount in a lung tissue hydrolysate according to the method of Kivirikko et al. (Anal. Biochem. 19, 249-255 (1967)). […]

Data set [2] can be described thus: Stability test in aqueous solution (HPLC assay). Particulars: for Purity: aqueous solution 1 g/100 mL, 35° C. It is filed as physicochemical. On the procedure:
Stability test on the 2Na salt of the compound (1) used in the present invention in an aqueous solution is shown below.
Injectable distilled water was added to 1 g of the 2Na salt of the compound (1) to prepare 100 mL of a sample solution. The sample solution was equally divided. One portion was shielded against light, and the other portion was unshielded. Each of them was stored at 35° C. for 11 days during which these sample solutions were assayed over time using high-performance liquid chromatography and examined for stability.
YMC-Pack ODS-A A-302 (YMC Co., Ltd.) was used as a column, and the column temperature was kept at a constant temperature around 40° C. A tetrahydrofuran/0.1% phosphoric acid (54:46) mixed solution was used as a mobile phase. A flow rate was adjusted such that the retention time of the compound (1) was approximately 7 minutes. An ultraviolet absorptiometer (measurement wavelength: 265 nm) was used as a detector.

Data set [3] in a line: Solubility test in water. It is filed as physicochemical. On the procedure: Solubility test on a 2Na salt of a typical compound (1) (disodium salt of [5-[[6-[4-phenyl-6-(phenylmethoxy)-2-pyrimidinyl]-2-naphthalenyl]oxy]pentyl]propanedioic acid) used in the present invention in water is shown below.
Water of 20±2° C. was added to the 2Na salt of the compound (1), and the mixture was vigorously shaken for 30 seconds and left standing for 5 minutes. This operation was repeated until the 2Na salt of the compound (1) was completely dissolved. The final amount of water required for the dissolution was determined. The solubility of the 2Na salt of the compound (1) in water of 45±5° C. was determined by similar operation.

SMILES strings stand for the structures.

`O=C([O-])C(CCCCCOc1ccc2cc(-c3nc(OCc4ccccc4)cc(-c4ccccc4)n3)ccc2c1)C(=O)[O-].[Na+].[Na+]` [2Na salt of compound (1), disodium salt of [5-[[6-[4-phenyl-6-(phenylmethoxy)-2-pyrimidinyl]-2-naphthalenyl]oxy]pentyl]propanedioic acid]: in data set [1] (1000 ppm in drinking water, free feeding, mice, listed as 2Na salt of the compound (1)), the “Fibrotic process of the lung induced by bleomycin” value is “remarkable effectiveness that suppressed the fibrotic process of the lung”. Moreover, the “Amount of hydroxyproline in lung tissue compared with the control group” value in data set [1] (group 2 (late stage): 1000 ppm in drinking water from 8 to 20 days after bleomycin (fibrotic stage), approx. 20 mg/kg/day, measured 20 days after bleomycin) is recorded as “significantly decreased”. In addition, the “Stability of aqueous solution” value in data set [2] (35° C. for 11 days, light-shielded or unshielded) is reported as “stable”. The Purity was determined as 99.8% in data set [2] (light-shielded, 0 days elapsed); 99.8% in data set [2] (light-shielded, 1 day elapsed); 99.8% in data set [2] (light-shielded, 6 days elapsed); 99.8% in data set [2] (light-shielded, 11 days elapsed); 99.8% in data set [2] (unshielded, 0 days elapsed); 99.8% in data set [2] (unshielded, 1 day elapsed). Also, the Purity is 99.7% in data set [2] (unshielded, 6 days elapsed) and 99.7% in data set [2] (unshielded, 11 days elapsed). Besides, the “Amount of solvent required for dissolving 1 g” value in data set [3] (Water (20 ± 2° C.)) was 33 mL; in data set [3] (Water (45 ± 5° C.)), 1.2 mL. Moreover, the “Solubility in water” value in data set [3] (water) is “excellent in solubility in water”.
